Data on 15 compounds can be found in patent US20040127361A1 (priority 2003, published 2004).

The structures appear in SMILES notation.

Holding throughout (assay type): in vivo
The subject of test [1] is Erysiphe graminis f sp. tritici. The test is described as follows: Test A: wheat powdery mildew, preventive spray on wheat seedlings. To be noted: wheat seedlings sprayed to run-off, inoculated following day with spore dust, 20° C. for 7 days; test concentration not stated. From the text: (§1) General protocol for preparing test suspensions: Test compounds are first dissolved in acetone in an amount equal to 3% of the final volume and then suspended at the desired concentration (in ppm) in acetone and purified water (50/50 mix) containing 250 ppm of the surfactant Trem® 014 (polyhydric alcohol esters). The resulting test suspensions are then used in the following tests. Spraying a 200 ppm test suspension to the point of run-off on the test plants is the equivalent of a rate of 500 g/ha
The test suspension was sprayed to the point of run-off on wheat seedlings. The following day the seedlings were inoculated with a spore dust of Erysiphe graminis f sp. tritici, (the causal agent of wheat powdery mildew) and incubated in a growth chamber at 20° C. for 7 days, after which disease ratings were made.
(§2) Results for Tests A-D are given in Table A. In the table, a rating of 100 indicates 100% disease control and a rating of 0 indicates no disease control (relative to the controls). A dash (-) indicates no test results. ND indicates disease control not determined due to phytotoxicity.

Test [2] deals with Puccinia recondita. The test is described as follows: Test B: wheat leaf rust, preventive spray on wheat seedlings. To be noted: wheat seedlings sprayed to run-off, inoculated following day with spore suspension, saturated atmosphere 20° C. 24 hours then growth chamber 6 days; test concentration not stated.
Source text: as §1
The test suspension was sprayed to the point of run-off on wheat seedlings. The following day the seedlings were inoculated with a spore suspension of Puccinia recondita (the causal agent of wheat leaf rust) and incubated in a saturated atmosphere at 20° C. for 24 hours, and then moved to a growth chamber at 20° C. for 6 days, after which disease ratings were made.
as §2

Test [3] has as its system Phytophthora infestans. To be noted: tomato seedlings sprayed to run-off, inoculated following day with spore suspension, saturated atmosphere 20° C. 24 hours then growth chamber 5 days; test concentration not stated.

Regarding `Cc1cnc2c(c1)CCCC2NC(=O)c1c(F)cccc1F` (stereo not drawn) [Compound A4], in test [1], the “Test A disease control rating (100 = 100% disease control, 0 = no disease control relative to the controls)” value is 0%. Also, the “Test B disease control rating (100 = 100% disease control, 0 = no disease control relative to the controls)” value in test [2] amounted to 0%. For the same compound, in test [3], the “Test C disease control rating (100 = 100% disease control, 0 = no disease control relative to the controls)” value came to 90%.

For `Cc1cnc2c(c1)CCCC2NC(=O)c1c(Cl)cc(Cl)cc1Cl` (stereo not drawn) [Compound A6], in test [1], the “Test A disease control rating (100 = 100% disease control, 0 = no disease control relative to the controls)” value is given as 0%. Further, the “Test B disease control rating (100 = 100% disease control, 0 = no disease control relative to the controls)” value in test [2] worked out at 9%. Further, the “Test C disease control rating (100 = 100% disease control, 0 = no disease control relative to the controls)” value in test [3] is given as 82%.

In the case of `CSc1ncccc1C(=O)NC1CCCc2cc(C)cnc21` (stereo not drawn) [Compound B3], the “Test A disease control rating (100 = 100% disease control, 0 = no disease control relative to the controls)” value in test [1] is given as 0%. In addition, the “Test B disease control rating (100 = 100% disease control, 0 = no disease control relative to the controls)” value in test [2] turned out to be 23%. Further, the “Test C disease control rating (100 = 100% disease control, 0 = no disease control relative to the controls)” value in test [3] worked out at 56%.

For `Cc1cnc2c(c1)CCCC2NC(=O)c1c(F)cccc1Cl` (stereo not drawn) [Compound A9], the “Test A disease control rating (100 = 100% disease control, 0 = no disease control relative to the controls)” value in test [1] came out at 0%. For the same compound, the “Test B disease control rating (100 = 100% disease control, 0 = no disease control relative to the controls)” value in test [2] is given as 38%. Moreover, the “Test C disease control rating (100 = 100% disease control, 0 = no disease control relative to the controls)” value in test [3] amounted to 97%.

`Cc1cnc2c(c1)CCCC2NC(=O)c1ccccc1Cl` (stereo not drawn) [Compound A5]: the “Test A disease control rating (100 = 100% disease control, 0 = no disease control relative to the controls)” value in test [1] turned out to be 0%. In addition, in test [2], the “Test B disease control rating (100 = 100% disease control, 0 = no disease control relative to the controls)” value amounted to 55%. For the same compound, in test [3], the “Test C disease control rating (100 = 100% disease control, 0 = no disease control relative to the controls)” value worked out at 46%.

As to `Cc1cnc2c(c1)CCCC2NC(=O)c1ccccc1C` (stereo not drawn) [Compound A7], the “Test A disease control rating (100 = 100% disease control, 0 = no disease control relative to the controls)” value in test [1] was determined as 0%. The “Test B disease control rating (100 = 100% disease control, 0 = no disease control relative to the controls)” value in test [2] is listed as 45%. In addition, the “Test C disease control rating (100 = 100% disease control, 0 = no disease control relative to the controls)” value in test [3] amounted to 75%.

With `Cc1cnc2c(c1)CCCC2NC(=O)c1cccnc1O` (stereo not drawn) [Compound B8], in test [1], the “Test A disease control rating (100 = 100% disease control, 0 = no disease control relative to the controls)” value turned out to be 0%. Further, the “Test B disease control rating (100 = 100% disease control, 0 = no disease control relative to the controls)” value in test [2] was found to be 19%. In test [3], the “Test C disease control rating (100 = 100% disease control, 0 = no disease control relative to the controls)” value worked out at 47%.

For `Cc1cnc2c(c1)CCCC2NC(=O)c1ccnc(Cl)c1` (stereo not drawn) [Compound C1], the “Test A disease control rating (100 = 100% disease control, 0 = no disease control relative to the controls)” value in test [1] amounted to 0%. In addition, the “Test B disease control rating (100 = 100% disease control, 0 = no disease control relative to the controls)” value in test [2] stood at 55%. Moreover, the “Test C disease control rating (100 = 100% disease control, 0 = no disease control relative to the controls)” value in test [3] is reported as 84%.

Consider `Cc1cnc2c(c1)CCCC2NC(=O)c1c(Cl)cccc1Cl` (stereo not drawn) [Compound A1, 2,6-dichloro-N-(5,6,7,8-tetrahydro-3-methyl-8-quinolinyl)benzamide], for which, in test [1], the “Test A disease control rating (100 = 100% disease control, 0 = no disease control relative to the controls)” value came to 0%. For the same compound, in test [2], the “Test B disease control rating (100 = 100% disease control, 0 = no disease control relative to the controls)” value is listed as 84%. Further, in test [3], the “Test C disease control rating (100 = 100% disease control, 0 = no disease control relative to the controls)” value was 100%.

On to `Cc1cnc2c(c1)CCCC2NC(=O)c1c(F)ccc(F)c1F` (stereo not drawn) [Compound A8, 2,3,6-trifluoro-N-(5,6,7,8-tetrahydro-3-methyl-8-quinolinyl)benzamide], for which the “Test A disease control rating (100 = 100% disease control, 0 = no disease control relative to the controls)” value in test [1] was found to be 0%. Besides, the “Test B disease control rating (100 = 100% disease control, 0 = no disease control relative to the controls)” value in test [2] came to 55%. The “Test C disease control rating (100 = 100% disease control, 0 = no disease control relative to the controls)” value in test [3] came out at 100%.

Take `Cc1cnc2c(c1)CCCC2NC(=O)c1ccc(Cl)nc1` (stereo not drawn) [Compound B4]: the “Test A disease control rating (100 = 100% disease control, 0 = no disease control relative to the controls)” value in test [1] is on record as 0%. Also, the “Test B disease control rating (100 = 100% disease control, 0 = no disease control relative to the controls)” value in test [2] was found to be 9%. Moreover, the “Test C disease control rating (100 = 100% disease control, 0 = no disease control relative to the controls)” value in test [3] turned out to be 32%.

Turning to `Cc1cnc2c(c1)CCCC2NC(=O)c1ccc(Br)cc1` (stereo not drawn) [Compound A2], in test [1], the “Test A disease control rating (100 = 100% disease control, 0 = no disease control relative to the controls)” value worked out at 0%. The “Test B disease control rating (100 = 100% disease control, 0 = no disease control relative to the controls)” value in test [2] is on record as 18%. The “Test C disease control rating (100 = 100% disease control, 0 = no disease control relative to the controls)” value in test [3] came out at 5%.

For the compound `COc1cc(C(=O)NC2CCCc3cc(C)cnc32)cc(Cl)n1` (stereo not drawn) [Compound C2, 2-chloro-6-methoxy-N-(5,6,7,8-tetrahydro-3-methyl-8-quinolinyl)4-pyridinecarboxamide], the “Test A disease control rating (100 = 100% disease control, 0 = no disease control relative to the controls)” value in test [1] was 95%. In test [2], the “Test B disease control rating (100 = 100% disease control, 0 = no disease control relative to the controls)” value came out at 28%. In addition, the “Test C disease control rating (100 = 100% disease control, 0 = no disease control relative to the controls)” value in test [3] was determined as 18%.

As for `Cc1cnc2c(c1)CCCC2NC(=O)c1cccnc1Nc1cccc(C(F)(F)F)c1` (stereo not drawn) [Compound B1], the “Test A disease control rating (100 = 100% disease control, 0 = no disease control relative to the controls)” value in test [1] is given as 0%. Moreover, the “Test B disease control rating (100 = 100% disease control, 0 = no disease control relative to the controls)” value in test [2] was 19%. Further, the “Test C disease control rating (100 = 100% disease control, 0 = no disease control relative to the controls)” value in test [3] stood at 16%.

Take `Cc1cnc2c(c1)CCCC2NC(=O)c1ccccc1C(F)(F)F` (stereo not drawn) [Compound A3]: the “Test A disease control rating (100 = 100% disease control, 0 = no disease control relative to the controls)” value in test [1] came out at 0%. Besides, the “Test B disease control rating (100 = 100% disease control, 0 = no disease control relative to the controls)” value in test [2] is on record as 41%. In test [3], the “Test C disease control rating (100 = 100% disease control, 0 = no disease control relative to the controls)” value stood at 47%.
